Measured values: patent US8084254B2, “Human blood brain barrier model” (Institut National de la Sante et de la Recherche Medicale …, priority 2004, dated 2011)

How the values were obtained:
hCMEC/D3 cells = tested on: hCMEC/D3 cells
Protocol: HCMEC/D3 cells were seeded on the filters at a density of 2×10^5 cells/cm^2 in normal culture medium (EGM-2). […] All plates were kept at 37° C. […] PS (clearance) is the permeability surface area product and s is the surface area of the filter (1 cm^2).

hCMEC/D3 monolayers = assay: Transendothelial electrical resistance (TEER) of hCMEC/D3 monolayers; type: cell-based, human; conditions: treatment of hCMEC/D3 monolayers
Protocol: Transendothelial electrical resistance (TEER) of hCMEC/D3 monolayers on Transwell-Clear™ filters was measured using an Endohm 12 chamber and an Endohmeter (World Precision Instruments Inc., Sarasota, Fla., USA). The baseline resistance of ECM-coated inserts was always subtracted from the resistance obtained in the presence of the endothelial cultures. Primary cultures of rat brain endothelial cells were used as control.

[1] = brain perfusion of adult rats; reported values (Cisternino et al.); cited from earlier work
P-gp = P-gp (Homo sapiens, UniProt P08183); assay: Drug accumulation in hCMEC/D3 cells with P-gp inhibitor; conditions: PSC-833 10 μM
Sequence of P-gp (P08183 whole entry): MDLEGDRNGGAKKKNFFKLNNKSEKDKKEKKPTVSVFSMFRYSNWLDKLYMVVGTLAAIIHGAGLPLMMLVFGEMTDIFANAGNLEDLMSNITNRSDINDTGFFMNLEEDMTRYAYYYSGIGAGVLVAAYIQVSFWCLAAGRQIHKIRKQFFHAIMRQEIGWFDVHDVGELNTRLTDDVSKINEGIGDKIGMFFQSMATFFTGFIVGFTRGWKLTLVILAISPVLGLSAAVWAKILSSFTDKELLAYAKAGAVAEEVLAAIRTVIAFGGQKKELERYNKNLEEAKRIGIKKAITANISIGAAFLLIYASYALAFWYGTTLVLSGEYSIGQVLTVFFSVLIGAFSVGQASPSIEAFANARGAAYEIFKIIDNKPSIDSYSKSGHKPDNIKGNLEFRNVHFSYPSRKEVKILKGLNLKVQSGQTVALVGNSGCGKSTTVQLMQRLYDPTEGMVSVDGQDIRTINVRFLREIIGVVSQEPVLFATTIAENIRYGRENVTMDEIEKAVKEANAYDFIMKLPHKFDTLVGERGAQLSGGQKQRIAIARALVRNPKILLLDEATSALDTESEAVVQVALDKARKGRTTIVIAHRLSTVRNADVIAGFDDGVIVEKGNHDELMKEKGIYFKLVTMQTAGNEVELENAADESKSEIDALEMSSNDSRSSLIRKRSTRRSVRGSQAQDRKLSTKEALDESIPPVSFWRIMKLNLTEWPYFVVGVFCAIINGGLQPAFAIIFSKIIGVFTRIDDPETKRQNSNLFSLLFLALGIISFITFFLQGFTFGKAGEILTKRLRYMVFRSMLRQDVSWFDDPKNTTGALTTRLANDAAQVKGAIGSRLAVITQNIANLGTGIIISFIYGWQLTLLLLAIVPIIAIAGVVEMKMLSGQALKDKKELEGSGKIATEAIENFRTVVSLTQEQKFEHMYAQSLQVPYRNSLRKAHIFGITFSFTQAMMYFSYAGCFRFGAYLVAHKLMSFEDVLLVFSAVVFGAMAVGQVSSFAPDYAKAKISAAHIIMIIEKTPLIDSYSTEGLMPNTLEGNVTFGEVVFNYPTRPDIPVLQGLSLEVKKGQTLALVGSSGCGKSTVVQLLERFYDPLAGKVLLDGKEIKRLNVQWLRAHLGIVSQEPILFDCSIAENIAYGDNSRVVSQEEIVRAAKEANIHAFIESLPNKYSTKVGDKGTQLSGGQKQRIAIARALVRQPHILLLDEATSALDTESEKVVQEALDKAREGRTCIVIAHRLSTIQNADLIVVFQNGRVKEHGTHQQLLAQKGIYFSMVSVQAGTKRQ
Protocol: The plates were shaken during both preincubation and incubation periods to reduce the effect of the aqueous boundary layer on drug accumulation. The cells were rapidly washed three times with ice-cold PBS to eliminate the extracellular drug, and then lyed in 100 μl 0.1 M NaOH or 1% Triton-X100.

Lucifer Yellow
Permeability of Lucifer Yellow across hCMEC/D3 (hCMEC/D3 cells): 0.53±0.10 10^−3 cm/min

Nc1ncnc2c1nc(Sc1ccc(Cl)cc1)n2[C@@H]1O[C@@H]2COP(=O)(O)O[C@H]2[C@H]1O [chlorophenylthio-cAMP]
Effect on TEER value (hCMEC/D3 monolayers): failed to significantly increase

CN1C(=O)CN=C(c2ccccc2)c2cc(Cl)ccc21 [Diazepam]
In vivo Kin [1]: 45 µL/s/g

COc1cc2c(c(OC)c1OC)-c1ccc(OC)c(=O)cc1[C@@H](NC(C)=O)CC2 [Colchicine]
In vivo Kin [1]: 0.28 µL/s/g

COc1cc2nc(N3CCN(C(=O)c4ccco4)CC3)nc(N)c2cc1OC [Prazosin]
In vivo Kin [1]: 0.96 µL/s/g

CC[C@]1(O)C[C@H]2CN(CCc3c([nH]c4ccccc34)[C@@](C(=O)OC)(c3cc4c(cc3OC)N(C=O)[C@H]3[C@@](O)(C(=O)OC)[C@H](OC(C)=O)[C@]5(CC)C=CCN6CC[C@]43[C@@H]65)C2)C1 [Vincristine]
In vivo Kin [1]: 0.06 µL/s/g

C/C=C/C[C@@H](C)C(=O)[C@H]1C(=O)N[C@@H](C(C)C)C(=O)N(C)CC(=O)N(C)[C@@H](CC(C)C)C(=O)N[C@@H](C(C)C)C(=O)N(C)[C@@H](CC(C)C)C(=O)N[C@@H](C)C(=O)N[C@H](C)C(=O)N(C)[C@@H](CC(C)C)C(=O)N(C)[C@@H](CC(C)C)C(=O)N(C)[C@@H](C(C)C)C(=O)N1C [PSC-833]
[3H] daunorubicin uptake by hCMEC/D3 cells (P-gp): markedly increased | calcein-AM uptake by hCMEC/D3 cells (P-gp; calcein-AM 10 μM): markedly increased | rhodamine 123 uptake by hCMEC/D3 cells (P-gp; rhodamine 123 10 μM): markedly increased

CN1CC[C@]23c4c5ccc(O)c4O[C@H]2[C@@H](O[C@@H]2O[C@H](C(=O)O)[C@@H](O)[C@H](O)[C@H]2O)C=C[C@H]3[C@H]1C5 [M6G, morphine-6-glucuronide]
In vivo Kin [1]: 0.03 µL/s/g
